Measured values: patent US20150307539A1, “USE OF SULPHATED G[…] PROMOTERS OF NEURITIC GROWTH, M[…] INHIBITING THE PROLIFERATION OF ASTROGLIA AND MICROGLIA” (CONSEJO SUPERIOR DE INVESTIGACIONES CIENTIFICAS (CSIC), priority 2012, published 2015)

Experiments:
N13 microglia = test: Inhibition of microglial cell proliferation, N13; type: cell-based, mouse; settings: for IC50: N13, microglia, mouse, IC50 ± SE
Description: (§1) To study the microglial and astroglial cell proliferation two cell lines of murine microglia were used (BV-2, N13), as well as primary astroblasts isolated from cerebral cortices of postnatal rats on day zero (P0). The cells were kept in DMEM plus 10% SBF, grown and treated for testing the inhibition of cell proliferation, as published earlier by the applicants (I. Garcia-Alvarez et al., J Med Chem 50, 364 (Jan. 25, 2007)). […] It was concluded that the inhibitory activity of IG20-NBD is not affected by the presence of the fluorescent group, as its IC50 is very similar to that obtained for the uncombined glycoside IG-20, which was used as a control in these tests.

[1] = system: Astrocytes (primary astroblasts from cerebral cortices of postnatal rats); test: Inhibition of astroglial cell proliferation, primary astroblasts; type: cell-based, rat; settings: for IC50: Astrocytes, astroglia, rat, IC50 ± SE
Description: as §1

[2] = system: neurons of spinal ganglia (SG) of rat embryos (E15); test: Neuritic outgrowth of spinal ganglia neurons co-cultured on aldynoglia; type: cell-based
Description: Spinal ganglia (SG) of rat embryos (E15) were dissected and incubated for 12 hours on axon growth-promoting cells (aldynoglia) to allow cellular adhesion of the neurons contained in the SG to the aldynoglia substrate. Next, different concentrations of IG-20, compound 3 produced as described in the synthesis examples, were added. […] The presence of total cells is shown by the fluorescent signal of the Hoechst-marked nuclei (FIG. 1a, 1b, 1c). The nuclei remote from the central body are aldynoglia cells or those that migrate from the SG. The neurofilament images were extracted (FIG. 1g, 1h, 1i) and measured, and the neuritic growth area was compared to the controls (FIG. 1j, 1k). […] A net increase in the neuritic growth area of 1250 μm^2 more than the control with aldynoglia cells (FIG. 1k) was produced. The average speed of neuritic outgrowth in the presence of aldynoglia, 625 μm/72 h corresponding to […], was duplicated in the presence of IG-20 (5 μM) up to 1250 μm/72 h, which corresponds to 17.36 μm/h. Calibration bars at 500 μm; (*) correspond to P<0.05 (P=0.019).

[3] = system: oligodendrocytes and astroglia from cerebral cortices of postnatal rats P0-P1; test: Oligodendrocyte growth, myelin (MBP) expression and astroglia (GFAP) inhibition in cortical glial culture; type: cell-based, rat; settings: 30 μM, two weeks culture
Description: To study how the compound having formula I affects the growth of oligodendrocytes, the expression of myelin and the inhibition of astroglia, cerebral cortices of postnatal rats P0-P1 were dissected and enzymatically dissociated for cell culture. After two weeks incubation the culture flasks were stirred for 12 hours. The cells in suspension were harvested, the microglia were removed, and then cultured in DMEM plus SBF 10%. It was incubated for 6 hours to facilitate cell adhesion and the IG-20 (30 μM) was added to the treated group. The cells were cultured for two weeks and the medium was replaced every three days.
In both cases the differences were very significant. It was notable that the astroglial cells were large compared with the oligodendrocytes, which could scarcely be detected in the untreated controls (arrow in 2a, b). […] GFAP, glial fibrillary acidic protein; MBP, myelin basic protein; calibration bars at 75 μm (a, c) and 25 μm (b), as shown; (***) corresponds to P<0.001.

RhoGDIα protein [4] = target: T1, RhoGDIα protein (Mus musculus, UniProt Q99PT1); test: Co-immunoprecipitation with anti-RhoGDIα antibody (Western blot and MS), BV-2 microglia; type: binding; settings: BV-2 microglia treated with 30 μM, cytosol fraction
T1 construct: This was verified by RhoGDIα immunoprecipitation in the microglial cell line BV-2; endogenous in cells; host or cells: BV-2 microglial cell line
T1 sequence (Q99PT1 1-204): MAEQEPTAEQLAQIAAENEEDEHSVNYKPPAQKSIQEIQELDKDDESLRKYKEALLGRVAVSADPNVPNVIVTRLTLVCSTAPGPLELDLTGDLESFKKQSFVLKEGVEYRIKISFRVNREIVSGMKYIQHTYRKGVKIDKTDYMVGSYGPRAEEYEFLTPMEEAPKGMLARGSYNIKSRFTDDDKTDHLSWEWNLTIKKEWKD
Description: (§2) Primary astrocyte and microglia cells (BV-2) were treated with the glycoside IG-20 at 30 μM, lysed and subjected to cell fractionation by differential centrifugation. The soluble fraction was collected and mixed with lysis buffer (1:1). Anti-RhoGDIα antibody (15 μg) was added and it was incubated with rotation at 4° C. overnight. It was immunoprecipitated with Protein A-Sepharose (20 μl) having been previously washed with PBS and centrifuged for 3 minutes at 1100 rpm. The previous mixture was added to the Protein A-Sepharose (1:1). This mixture was incubated with rotation at 4° C. for an hour and a half, and afterwards centrifuged for 5 minutes at 2500 rpm at 4° C. After discarding the supernatant, the precipitate was washed three times with lysis buffer. The immunocomplex of the Protein A-Sepharose was eluted with five volumes of the elution buffer (0.1 M glycine, pH=2.9) and a neutralising volume of 1M tris-HCl, pH=9. The mixture was centrifuged for five minutes at 2500 rpm at 4° C. and the supernatant was collected. […]
(§3) This was verified by RhoGDIα immunoprecipitation in the microglial cell line BV-2, and also in primary astrocyte cultures. […] This was detected by MS as a peak in the mass to charge ratio of 550 (FIG. 4c, 4d), which corresponds to the synthetic glycoside. […]

BV-2 microglia = test: Inhibition of microglial cell proliferation, BV-2; type: cell-based; settings: mouse, IC50 ± SE
Description: as §1

RhoGDIα protein [5] = target: T2, RhoGDIα protein (Rattus norvegicus, UniProt Q5XI73); test: Co-immunoprecipitation with anti-RhoGDIα antibody (Western blot and MS), primary astrocytes; type: binding; settings: primary astrocytes treated with 30 μM, cytosol fraction
T2 construct: This was verified by RhoGDIα immunoprecipitation in the microglial cell line BV-2, and also in primary astrocyte cultures; endogenous in cells; host or cells: primary astrocyte cultures
T2 sequence (Q5XI73 1-204): T1 sequence (Q99PT1 1-204)
Description: as §2, §3

Row | SMILES | IC50 (N13 microglia) [µM] | microglial inhibition compared with IG-20 (N13 microglia; microglia) | activity in astrocytes compared with IG-20 ([1]; 30 μM compared with 9.3 μM) | IC50 [1] [µM] | IC50 ([1]; Astrocyte) [µM] | net increase in the neuritic growth area more than the control with aldynoglia cells ([2]; 5 μM, 3 days incubation) [μm^2] | neuritic outgrowth compared with control aldynoglia ([2]; 5 μM, 3 days incubation, SG/aldynoglia co-culture) | average speed of neuritic outgrowth ([2]; 5 μM, control aldynoglia 8.3 μm/h) [μm/h] | average speed of neuritic outgrowth ([2]; 5 μM, control aldynoglia 625 μm/72 h) [μm/72 h] | neuritic outgrowth at five-fold increased concentration ([2]; five-fold increase of 5 μM, 3 days incubation) | GFAP marking compared with untreated control [3] | MBP signal compared with untreated control [3] | increase of mature oligodendroglia, MBP+ [3] [%] | oligodendrocyte size relative to controls [3] | reduction of the proportion of GFAP+ cells (astroglia) [3] [%] | interaction with RhoGDIα (co-immunoprecipitation) (RhoGDIα protein [4]) | IC50 (BV-2 microglia) [µM] | interaction with RhoGDIα (co-immunoprecipitation) (RhoGDIα protein [5])
1 | CCCCCCCC/C=C\CCCCCCCCO[C@H]1O[C@H](COS(=O)(=O)[O-])[C@@H](O)[C@H](OS(=O)(=O)[O-])[C@H]1NC(=O)C(F)(F)F.[K+].[K+] [Disulphated IG-20, potash from oleyl N-trifluoroacetyl-3,6-O-di-(oxo-sulphonyl)-α-D-glucosaminide] | 3 ± 0.8 | microglial inhibition was not affected | reduced its activity by three | 30 | – | – | – | – | – | – | – | – | – | – | – | – | – | –
2 | CCCCCCCC/C=C\CCCCCCCCO[C@H]1O[C@H](COS(=O)(=O)O)[C@@H](O)[C@H](O)[C@H]1NC(=O)CCCCCNc1ccc([N+](=O)[O-])c2nonc12 [IG20-NBD, potash from oleyl 2-[6-(7-nitrobenzofurazan)-aminohexanamide]-6-O-(oxo-sulphonyl)-α-D-glucosaminide] | 7.8 | – | – | – | 11.4 | – | – | – | – | – | – | – | – | – | – | – | – | –
3 | CCCCCCCC/C=C\CCCCCCCCO[C@H]1O[C@H](COS(=O)(=O)[O-])[C@@H](O)[C@H](O)C1NC(C)=O.[K+] (stereo partly drawn) [IG-20, potash from oleyl N-acetyl-6-O-(oxo-sulphonyl)-α-D-glucosaminide] | 3.4 | – | – | – | 9.3 | 1250 | profuse and significant increase in neuritic outgrowth | 17.36 | 1250 | reduced this neuritic outgrowth | dramatic reduction in GFAP marking | increase in the MBP signal | 10 | 3-4 times larger than the controls | 20 | interacts directly with the RhoGDIα protein | 21 | interacts directly with the RhoGDIα protein
